# Patent publication US20080076847A1, “Polymerizable compositions with acylgermanes as initiatiors” (IVOCLAR VIVADENT AG, priority 2006, published 2008)
# Like-named read-outs stand apart in the source and are kept apart here.
# Key:
# [1] = Photoinitiator activity by photo-DSC
# Description: The activity of the photoinitiators was measured by means of photo-DSC (Differential Scanning Calorimetry) measurements on a DSC-50 device from Shimadzu, wherein the samples were irradiated alternatively with different dental lamps (Astalis 3: halogen lamp, wavelength range 400-500 nm, intensity 530 mW/cm^2; Bluephase C8: LED, wavelength range 430-490 nm, intensity 1100 mW/cm^2; Ivoclar Vivadent AG). The activity is characterized by the time of peak maximum (tmax), the polymerization rate (RP) which corresponds to the peak height, and the double bond conversion (DBC). The respective photoinitiators were dissolved in a resin mixture of D3MA:UDMA:bis-GMA=1:1:1 and then measured in an aluminium crucible by means of DSC. […]
# [2] = known photoinitiators, longest-wave maximum; cited from earlier work
# [3] = UV-VIS absorption maximum; format: physicochemical; settings: longest-wave maximum
# [4] = Astralis 3 lamp (400-500 nm), 0.022 mmol PI per gram of resin
# [5] = Bluephase C8 lamp (430-490 nm), 0.022 mmol PI per gram of resin
Structure (SMILES),"DBC (double bond conversion) [1, 4] [%]","Rp × 10^−3 (polymerization rate) [1, 4]","DBC (double bond conversion) [1, 5] [%]","Rp × 10^−3 (polymerization rate) [1, 5]",DBC (double bond conversion) ([1]; PI concentration 0.0014 mmol/g) [%],Rp × 10^−3 (polymerization rate) ([1]; PI concentration 0.0014 mmol/g),DBC (double bond conversion) ([1]; PI concentration 0.0055 mmol/g) [%],Rp × 10^−3 (polymerization rate) ([1]; PI concentration 0.0055 mmol/g),absorption maximum [2] [nm],curing time compared with campherquinone/amine ([1]; resin mixture D3MA:UDMA:bis-GMA=1:1:1),"polymerization rate (Rp) compared with camphorquinone in combination with an amine accelerator ([1]; resin mixture D3MA:UDMA:bis-GMA=1:1:1, same formulation)",absorption maximum [3] [nm]
"Cc1cc(C)c(C(=O)P(=O)(C(=O)c2c(C)cc(C)cc2C)c2ccccc2)c(C)c1 [Irg 819, bis(2,4,6-trimethylbenzoyl)phenylphosphine oxide, reference compound]",59,67.5 mol/(l × s),45,43.5 mol/(l × s),42,30.4 mol/(l × s),48,48.3 mol/(l × s),397,–,–,–
"C[CH2][Ge]([CH2]C)([C](=O)c1ccccc1)[C](=O)c1ccccc1 [Bis-AG, bisbenzoyldiethylgermanium]",84,99.2 mol/(l × s),72,98.5 mol/(l × s),56,61.0 mol/(l × s),66,85.6 mol/(l × s),–,halved,almost double,418.5
"[CH3][Ge]([CH3])([CH3])[C](=O)c1ccccc1 [Mono-AG, benzoyltrimethylgermanium]",56,51.0 mol/(l × s),49,48.3 mol/(l × s),30,16.4 mol/(l × s),48,36.2 mol/(l × s),–,–,–,411.5
CC12CCC(C(=O)C1=O)C2(C)C (stereo not drawn) [camphorquinone],–,–,–,–,–,–,–,–,468,–,–,–
